Measured values as given in ChEMBL document CHEMBL3120136 (J Med Chem, 2014).
*1 amine or outer side, *2 acyl side, *3 side chain or, on linkers, in order; H or OH if unused. Where a SMILES comes first, the peptide text is derived from it. Side-chain parts run from the residue outwards. [ ]: non-standard residue; d: D form. The star is where a group is joined. Ac3c(1R,2S-2-vinyl) = C=C[C@@H]1C[C@]1(N)C(=O)O; NH(1-naphthylmethyl) = c1ccc2c(CN*)cccc2c1; NH(1-naphthyl) = c1ccc2c(N*)cccc2c1; Hyp = O=C(O)[C@@H]1C[C@@H](O)CN1; Chg = N[C@H](C(=O)O)C1CCCCC1; X2 = c1ccc(C2CN(*)CCO2)cc1; X3 = c1ccc(C2CCN(*)C2)cc1; Morpholide = C1CN(*)CCO1; Piperidide = C1CCN(*)CC1; Pyrrolidide = C1CCN(*)C1; X4 = c1ccc(C2COCCN2*)cc1; X5 = c1ccc2c(c1)CN(*)C2; X1 = c1ccc2c(c1)CCN2*; CO = O=C([*:1])[*:2]

Tests used:
[1] = tested on: Hepatitis C virus; experiment: Antiviral activity against Hepatitis C virus infected in human HuH7 cells assessed as inhibition of HCV subgenomic replicon replication after 72 hrs by ELISA; type: functional, organism-based, Hepacivirus hominis, Huh-7; conditions: Hepatitis C virus, Huh-7, 72 h; read-out: EC50
[2] = Inhibition of Hepatitis C virus full-length NS3/4A protease assessed as quenched-fluorogenic RET-S1 substrate cleavage incubated for 10 mins prior to substrate addition by FRET analysis; design: species or system Hepacivirus hominis

SMILES	EC50 [1] [nM]	IC50 [2] [nM]
C=C[C@@H]1C[C@]1(NC(=O)[C@@H]1C[C@@H](OC(=O)N2CCc3ccccc32)CN1C(=O)[C@@H](NC(=O)[C@@H](NC(C)=O)C1CCCCC1)C(C)C)C(=O)O (Ac-[Chg]V[Hyp]([CO-X1])[Ac3c(1R,2S-2-vinyl)]-OH)		200
CC(C)(C)OC(=O)N[C@H]1CCCCC/C=C\[C@@H]2C[C@@]2(C(=O)NS(=O)(=O)C2CC2)NC(=O)[C@@H]2C[C@@H](NC(=O)N3Cc4ccccc4C3)CN2C1=O	47	2.3
CC(C)(C)OC(=O)N[C@H]1CCCCC/C=C\[C@@H]2C[C@@]2(C(=O)NS(=O)(=O)C2CC2)NC(=O)[C@@H]2C[C@@H](OC(=O)N3CCc4cc(F)ccc4C3)CN2C1=O	11	2
CC(C)(C)OC(=O)N[C@H]1CCCCC/C=C\[C@@H]2C[C@@]2(C(=O)NS(=O)(=O)N2CCC2)NC(=O)[C@@H]2C[C@@H](OC(=O)N3Cc4ccccc4C3)CN2C1=O	6.5	2.4
O=C(N[C@H]1CCCCC/C=C\[C@@H]2C[C@@]2(C(=O)NS(=O)(=O)C2CC2)NC(=O)[C@@H]2C[C@@H](OC(=O)N3Cc4ccccc4C3)CN2C1=O)OCCF	54	1.5
CC(C)Nc1ccc2c(c1)CN(C(=O)O[C@@H]1C[C@H]3C(=O)N[C@]4(C(=O)NS(=O)(=O)C5CC5)C[C@H]4/C=C\CCCCC[C@H](NC(=O)OC(C)(C)C)C(=O)N3C1)C2	11	4.3
CC(C)(C)OC(=O)N[C@H]1CCCOC/C=C\[C@@H]2C[C@@]2(C(=O)NS(=O)(=O)C2CC2)NC(=O)[C@@H]2C[C@@H](OC(=O)N3Cc4cccc(F)c4C3)CN2C1=O	155	0.8
C=C[C@@H]1C[C@]1(NC(=O)[C@@H]1C[C@@H](OC(=O)N2CCCC2)CN1C(=O)[C@@H](NC(=O)[C@@H](NC(C)=O)C1CCCCC1)C(C)C)C(=O)O (Ac-[Chg]V[Hyp]([CO-Pyrrolidide])[Ac3c(1R,2S-2-vinyl)]-OH)		14900
N[C@H]1CCCCC/C=C\[C@@H]2C[C@@]2(C(=O)NS(=O)(=O)C2CC2)NC(=O)[C@@H]2C[C@@H](OC(=O)N3Cc4cccc(Cl)c4C3)CN2C1=O	150	3
CC(C)(C)OC(=O)N[C@H]1CCCCC/C=C\[C@@H]2C[C@@]2(C(=O)NS(=O)(=O)C2CC2)NC(=O)[C@@H]2C[C@@H](OC(=O)N3Cc4cccc(N)c4C3)CN2C1=O	4.1	0.2
CC(C)(C)OC(=O)N[C@H]1CCOCCCC[C@@H]2C[C@@]2(C(=O)NS(=O)(=O)C2CC2)NC(=O)[C@@H]2C[C@@H](OC(=O)N3Cc4cccc(F)c4C3)CN2C1=O	19	0.7
N[C@H]1CCCCC/C=C\[C@@H]2C[C@@]2(C(=O)NS(=O)(=O)C2CC2)NC(=O)[C@@H]2C[C@@H](OC(=O)N3Cc4cccc(F)c4C3)CN2C1=O	3050	20
CC(C)(C)OC(=O)N[C@H]1CCCCC/C=C\[C@@H]2C[C@@]2(C(=O)NS(=O)(=O)C2CC2)NC(=O)[C@@H]2C[C@@H](OC(=O)N3CCc4cccc(C(F)(F)F)c4C3)CN2C1=O	13	0.8
CC(C)(C)OC(=O)N[C@H]1CCCC(F)(F)CCC[C@@H]2C[C@@]2(C(=O)NS(=O)(=O)C2CC2)NC(=O)[C@@H]2C[C@@H](OC(=O)N3Cc4cccc(F)c4C3)CN2C1=O	46	1.3
O=C(N[C@H]1CCCCC/C=C\[C@@H]2C[C@@]2(C(=O)NS(=O)(=O)C2CC2)NC(=O)[C@@H]2C[C@@H](OC(=O)N3Cc4ccccc4C3)CN2C1=O)O[C@@H]1CCOC1	107	2.8
CC(C)(C)OC(=O)N[C@H]1CCCCC/C=C\[C@@H]2C[C@@]2(C(=O)NS(=O)(=O)C2CC2)NC(=O)[C@@H]2C[C@@H](OC(=O)N3Cc4ccccc4C(O)C3)CN2C1=O (some centres not stated)	718	2.2
C=C[C@@H]1C[C@]1(NC(=O)[C@@H]1C[C@@H](OC(=O)N2CCOCC2)CN1C(=O)[C@@H](NC(=O)[C@@H](NC(C)=O)C1CCCCC1)C(C)C)C(=O)O (Ac-[Chg]V[Hyp]([CO-Morpholide])[Ac3c(1R,2S-2-vinyl)]-OH)		47100
C=C[C@@H]1C[C@]1(NC(=O)[C@@H]1C[C@@H](OC(=O)NCc2cccc3ccccc23)CN1C(=O)[C@@H](NC(=O)[C@@H](NC(C)=O)C1CCCCC1)C(C)C)C(=O)O (Ac-[Chg]V[Hyp]([CO-NH(1-naphthylmethyl)])[Ac3c(1R,2S-2-vinyl)]-OH)		835

More lines, in order of falling IC50 [2], values ahead:

EC50 [1] [nM]	IC50 [2] [nM]	SMILES
	5500	C=C[C@@H]1C[C@]1(NC(=O)[C@@H]1C[C@@H](OC(=O)N2CCOCC2c2ccccc2)CN1C(=O)[C@@H](NC(=O)[C@@H](NC(C)=O)C1CCCCC1)C(C)C)C(=O)O (stereo partly drawn) (Ac-[Chg]V[Hyp]([CO-X4])[Ac3c(1R,2S-2-vinyl)]-OH)
	4770	C=C[C@@H]1C[C@]1(NC(=O)[C@@H]1C[C@@H](OC(=O)N2CCOC(c3ccccc3)C2)CN1C(=O)[C@@H](NC(=O)[C@@H](NC(C)=O)C1CCCCC1)C(C)C)C(=O)O (stereo partly drawn) (Ac-[Chg]V[Hyp]([CO-X2])[Ac3c(1R,2S-2-vinyl)]-OH)
	4290	C=C[C@@H]1C[C@]1(NC(=O)[C@@H]1C[C@@H](OC(=O)N2CCCCC2)CN1C(=O)[C@@H](NC(=O)[C@@H](NC(C)=O)C1CCCCC1)C(C)C)C(=O)O (Ac-[Chg]V[Hyp]([CO-Piperidide])[Ac3c(1R,2S-2-vinyl)]-OH)
	818	C=C[C@@H]1C[C@]1(NC(=O)[C@@H]1C[C@@H](OC(=O)Nc2cccc3ccccc23)CN1C(=O)[C@@H](NC(=O)[C@@H](NC(C)=O)C1CCCCC1)C(C)C)C(=O)O (Ac-[Chg]V[Hyp]([CO-NH(1-naphthyl)])[Ac3c(1R,2S-2-vinyl)]-OH)
	735	C=C[C@@H]1C[C@]1(NC(=O)[C@@H]1C[C@@H](OC(=O)N2CCC(c3ccccc3)C2)CN1C(=O)[C@@H](NC(=O)[C@@H](NC(C)=O)C1CCCCC1)C(C)C)C(=O)O (stereo partly drawn) (Ac-[Chg]V[Hyp]([CO-X3])[Ac3c(1R,2S-2-vinyl)]-OH)
25000	483	CC(C)(C)OC(=O)N[C@H]1CCCCC/C=C\[C@@H]2C[C@@]2(C(=O)O)NC(=O)[C@@H]2C[C@@H](OC(=O)N3Cc4cc(Cl)c(Cl)cc4C3)CN2C1=O
7520	195	CC(C)(C)OC(=O)N[C@H]1CCCCC/C=C\[C@@H]2C[C@@]2(C(=O)O)NC(=O)[C@@H]2C[C@@H](OC(=O)N3Cc4ccc(C(F)(F)F)cc4C3)CN2C1=O
	186	C=C[C@@H]1C[C@]1(NC(=O)[C@@H]1C[C@@H](OC(=O)N2Cc3ccccc3C2)CN1C(=O)[C@@H](NC(=O)[C@@H](NC(C)=O)C1CCCCC1)C(C)C)C(=O)O (Ac-[Chg]V[Hyp]([CO-X5])[Ac3c(1R,2S-2-vinyl)]-OH)
3160	110	CC(C)(C)OC(=O)N[C@H]1CCCCC/C=C\[C@@H]2C[C@@]2(C(=O)O)NC(=O)[C@@H]2C[C@@H](OC(=O)N3Cc4ccc(Cl)cc4C3)CN2C1=O
1550	11	CC(C)(C)OC(=O)N[C@H]1CCCCC/C=C\[C@@H]2C[C@@]2(C(=O)O)NC(=O)[C@@H]2C[C@@H](OC(=O)N3Cc4ccccc4C3)CN2C1=O
45	11	CN(C)c1ccc(S(=O)(=O)NC(=O)[C@@]23C[C@H]2/C=C\CCCCC[C@H](NC(=O)OC(C)(C)C)C(=O)N2C[C@H](OC(=O)N4Cc5ccccc5C4)C[C@H]2C(=O)N3)cc1
70	9.8	CC(C)(C)OC(=O)N[C@H]1CCCCC/C=C\[C@@H]2C[C@@]2(C(=O)NS(=O)(=O)Nc2ccc(C(F)(F)F)cc2)NC(=O)[C@@H]2C[C@@H](OC(=O)N3Cc4ccccc4C3)CN2C1=O
1830	9.7	CC(C)(C)OC(=O)N[C@H]1CCNCC/C=C\[C@@H]2C[C@@]2(C(=O)NS(=O)(=O)C2CC2)NC(=O)[C@@H]2C[C@@H](OC(=O)N3Cc4cccc(F)c4C3)CN2C1=O
614	6.4	CC(C)(C)OC(=O)N[C@H]1CCCCC/C=C\[C@@H]2C[C@@]2(C(=O)NS(=O)(=O)C2CC2)NC(=O)[C@@H]2C[C@@H](NC(=O)c3nc4ccccc4[nH]3)CN2C1=O
11	3.5	CC(C)(C)OC(=O)N[C@H]1CCCCC/C=C\[C@@H]2C[C@@]2(C(=O)NS(=O)(=O)c2ccccc2)NC(=O)[C@@H]2C[C@@H](OC(=O)N3Cc4ccccc4C3)CN2C1=O
27	2.5	CC(C)(C)OC(=O)N[C@H]1CCCCC/C=C\[C@@H]2C[C@@]2(C(=O)NS(=O)(=O)c2cccs2)NC(=O)[C@@H]2C[C@@H](OC(=O)N3Cc4ccccc4C3)CN2C1=O
22	2.3	COc1ccc2c(c1)CN(C(=O)O[C@@H]1C[C@H]3C(=O)N[C@]4(C(=O)NS(=O)(=O)C5CC5)C[C@H]4/C=C\CCCCC[C@H](NC(=O)OC(C)(C)C)C(=O)N3C1)C2
21	1.4	CC(C)(C)OC(=O)N[C@H]1CCCCC/C=C\[C@@H]2C[C@@]2(C(=O)NS(=O)(=O)C2CC2)NC(=O)[C@@H]2C[C@@H](NC(=O)c3cc4ccccc4s3)CN2C1=O
33	1.2	CC(C)(C)OC(=O)N[C@H]1CCOCC/C=C\[C@@H]2C[C@@]2(C(=O)NS(=O)(=O)C2CC2)NC(=O)[C@@H]2C[C@@H](OC(=O)N3Cc4cccc(F)c4C3)CN2C1=O
5.7	1	CC1CN(C(=O)O[C@@H]2C[C@H]3C(=O)N[C@]4(C(=O)NS(=O)(=O)C5CC5)C[C@H]4/C=C\CCCCC[C@H](NC(=O)OC(C)(C)C)C(=O)N3C2)Cc2ccccc21 (some centres not stated)
6.8	0.8	CC(C)(C)OC(=O)N[C@H]1CCC(F)(F)CCCC[C@@H]2C[C@@]2(C(=O)NS(=O)(=O)C2CC2)NC(=O)[C@@H]2C[C@@H](OC(=O)N3Cc4cccc(F)c4C3)CN2C1=O
12	0.7	CC(C)(C)OC(=O)N[C@H]1CCCCC/C=C\[C@@H]2C[C@@]2(C(=O)NS(=O)(=O)C2CC2)NC(=O)[C@@H]2C[C@@H](OC(=O)N3CCc4c(F)cccc4C3)CN2C1=O
26	0.7	O=C(NC1CCCC1)N[C@H]1CCCCC/C=C\[C@@H]2C[C@@]2(C(=O)NS(=O)(=O)C2CC2)NC(=O)[C@@H]2C[C@@H](OC(=O)N3Cc4ccccc4C3)CN2C1=O
